One series relates to Homo sapiens. To be noted: clinical; for NOAEL: M, clinical chemistry; for LEL: no effects.
The subject of another series is Mus musculus. To be noted: for LOAEL: M.
In a further series the test system is Daphnia magna. To be noted: acute.
The next series deals with Gallus gallus. To be noted: subchronic; duration: 35 days; oral; diet; no effects.
The next series has as its system Apis mellifera. To be noted: acute; dermal; mortality.
The next series deals with Colinus virginianus. To be noted: acute; oral; mortality.

The values that follow come from EPA's ToxValDB 9.5.

One may read the NOAEL as the highest dose or exposure tested at which no adverse effect was seen. As a reminder, the LOAEL is the lowest tested level that showed an adverse finding.

A value given as a limit tells only on which side of the number the result lay.

As to `O=C1OC2(c3ccccc31)c1cc(I)c([O-])c(I)c1Oc1c2cc(I)c([O-])c1I.[Na+].[Na+]` [FD&C Red 3], the NOAEL was 10000 mg/kg-day in the series with Canidae (chronic, duration: 2 years, oral, diet, M/F, Beagle, clinical chemistry); 1 mg/kg-day in the series with Homo sapiens (duration: 14 days, oral, capsule); 125 mg/kg-day in the series with Rattus norvegicus (repeat dose other, oral, diet, other).

For `[Fe+2]` [Fe +2 ion], the NOAEL in the series with Mus musculus (developmental, development) was 380 mg/kg-day; in the series on Rattus norvegicus (developmental, development), 380 mg/kg-day.

The molecule `C/C=C/c1ccc(O)c(OC)c1` [Isoeugenol] yielded an NOEC in the series with Daphnia magna of 0.4 mg/L. Besides, the LOAEL in the series on Mus musculus (chronic, duration: 2 years, histopathology: neoplastic) was found to be 75 mg/kg-day.

Turning to `Cc1cc(OC(C)C)ccc1C(=O)C(C)(C)NC(=O)c1sccc1C` [Isofetamid], the NOAEL with Canidae (chronic, duration: 1 years, Dog Other, body weight) was 1.57 mg/kg-day; in the series on Canidae (subchronic, duration: 90 days, oral, Dog Other, body weight), 5.34 mg/kg-day.

As for `Cl.Cl.[Cu+2].[NH-][C@@H](CCCCN)C(=O)[O-].[NH-][C@@H](CCCCN)C(=O)[O-]` [L-Lysine, copper complex], the NOAEL with Homo sapiens (duration: 12 weeks, oral) was 10 mg/day.

Turning to `[Cl-].[Mn+2].[Mn+2].[OH-].[OH-].[OH-]` [Manganese chloride hydroxide (Mn2Cl(OH)3)], the LEL with Gallus gallus was 1920 mg/kg-day.

Take `CSSC` [Methyl disulfide]: the LD50 is above 100 µg/piece in the series with Apis mellifera; 342 mg/kg with Colinus virginianus; above 125 mg/kg in the series with Rattus norvegicus (acute, oral, mortality). Further, the NOAEC in the series on Rattus norvegicus (reproduction developmental, body weight) came to 5 ppm; in the series with Rattus norvegicus (reproduction developmental, inhalation, no effects), 308 mg/m3; in the series with Rattus norvegicus (subchronic, duration: 90 days, inhalation, body weight), 77 mg/m3.

Take `CN1CCCC1=O` [N-Methyl-2-pyrrolidone]: the NOAEL with Mus musculus (chronic, M/F, B6C3F1, organ weight) was determined as 90 mg/kg-day.

As to `C=C(/C=C\C[C@@H](O)[C@@H](O)[C@H](O)C/C=C/C=C\[C@@H](O)C[C@@H]1O[C@H](C[C@@H](O)[C@H](O)C[C@H]2O[C@H]([C@H](O)[C@H](O)CC[C@H](O)/C=C/[C@H](C)[C@@H](O)C[C@]3(O)O[C@H](C[C@@H](O)CCCCCCC[C@@]45C[C@@H](C)C[C@@](C)(O4)[C@@H](C[C@@H](C)CCCCC[C@@H](O)[C@H](O)[C@H](O)[C@@H](O)[C@H](O)[C@H]4O[C@H](C[C@H](O)[C@H](O)/C(C)=C/[C@H](O)C[C@@H](C)[C@H](O)C(=O)N/C=C/C(=O)NCCCO)[C@H](O)[C@@H](O)[C@@H]4O)O5)[C@H](O)[C@@H](O)[C@H]3O)C[C@@H](O)[C@@H]2O)[C@@H](O)[C@H](O)[C@H]1O)CC[C@H](O)[C@@H](O)[C@H](O)[C@H](C)C[C@H]1O[C@H](/C=C\[C@@H](O)[C@H](O)C[C@@H]2C[C@@H]3C[C@H](O2)[C@@H](CC[C@H]2O[C@H](CN)C[C@H]2O)O3)[C@@H](O)[C@H](O)[C@H]1O` [Palytoxin], in the series on Mus musculus (acute, oral, gavage, ICR, clinical signs), the LOAEL came to 0.2 mg/kg-day.

For `[Cl-].[K+]` [Potassium chloride], in the series on Homo sapiens (duration: 4 weeks, oral, F), the LEL was 40 mg/kg-day.

The molecule `O=S([O-])S(=O)(=O)[O-].[Na+].[Na+]` [Sodium metabisulfite] came in with an NOAEL in the series on Rattus norvegicus (chronic, duration: 2 years, oral, diet, M/F, histopathology: nonneoplastic) of 72 mg/kg-day.

With `CCCCCCCCCCCCCCCCCC(=O)OC(C)C(=O)OC(C)C(=O)[O-].[Na+]` (stereo not drawn) [Sodium stearoyl lactylate], in the series with Rattus norvegicus (chronic, duration: 1 years, M/F, Wistar, no effects), the NOAEL stood at 2200 mg/kg-day.

The molecule `NC1=N[C@H](O)[C@H]2[C@H]3O[C@]4(O)O[C@@H]([C@@H](O)[C@@]2(N1)[C@@H]4O)[C@]3(O)CO` [Tetrodotoxin] had an LEL with Mus musculus (acute, injection, intraperitoneal, no effects) of 0.025 mg/kg-day. The molecule also returned an NOAEL in the series with Mus musculus (acute, oral, other) of 0.075 mg/kg-day.

With `Cc1ncc(C[n+]2csc(CCO)c2C)c(N)n1.Cl.[Cl-]` [Thiamine hydrochloride], in the series with Rattus norvegicus (subchronic, duration: 90 days, oral, diet), the NOAEL came to 36 mg/kg-day.

With `[O]=[Ti]=[O]` [Titanium dioxide], in the series on Rattus norvegicus (chronic, duration: 103 weeks, oral, diet, M/F, Fischer 344, no effects), the NOAEL is 2250 mg/kg-day.

In turn, `CNC(=O)C(C)(C(C)C)C(C)C` [Trimethyl isopropyl butanamide] had an NOEL in the series on Rattus norvegicus (chronic, duration: 14 weeks, oral, diet, M/F, histopathology: nonneoplastic) of 5 mg/kg-day.

Regarding `COc1nc(NC(=O)NS(=O)(=O)c2ccccc2C(F)(F)F)nc(C(F)(F)F)n1` [Tritosulfuron], the NOAEL was 6 mg/kg-day with Canidae (chronic, duration: 12 months, oral, Dog Other, organ weight) and 15 mg/kg-day in the series on Canidae (subchronic, duration: 90 days, oral, Dog Other).

In the series on Rattus norvegicus (subchronic, duration: 13 weeks, oral, gavage, no effects), `COc1ccc(C=O)cc1OC` [Veratraldehyde] displayed an NOAEL of 400 mg/kg-day.

The molecule `CC(C)=CCC/C(C)=C/C=C/C(C)=C/C=C/C(C)=C/C=C/C=C(C)/C=C/C=C(C)/C=C/C=C(\C)CCC=C(C)C` [all-trans-Lycopene] had a no-observed-adverse-effect level (NOAEL) with Rattus norvegicus (chronic, duration: 1 years, clinical chemistry) of 50 mg/kg-day.

For the molecule `CC1=C(/C=C/C(C)=C/C=C/C(C)=C/C=C/C=C(C)/C=C/C=C(C)/C=C/C2=C(C)CCCC2(C)C)C(C)(C)CCC1` [beta-Carotene], in the series with Homo sapiens (duration: 5 years), the LEL is at most 15 mg/day.

On to `OC[C@H]1O[C@@H]2O[C@H]3[C@H](O)[C@@H](O)[C@@H](O[C@H]4[C@H](O)[C@@H](O)[C@@H](O[C@H]5[C@H](O)[C@@H](O)[C@@H](O[C@H]6[C@H](O)[C@@H](O)[C@@H](O[C@H]7[C@H](O)[C@@H](O)[C@@H](O[C@H]8[C@H](O)[C@@H](O)[C@@H](O[C@H]1[C@H](O)[C@H]2O)O[C@@H]8CO)O[C@@H]7CO)O[C@@H]6CO)O[C@@H]5CO)O[C@@H]4CO)O[C@@H]3CO` [beta-Cyclodextrin], for which the NOAEL came out at 466 mg/kg-day in the series on Canidae (chronic, duration: 1 years, Dog Other, clinical chemistry); 600 mg/kg-day in the series with Rattus norvegicus (chronic, duration: 6 months, oral, gavage, Long-Evans, body weight); 654 mg/kg-day in the series on Rattus norvegicus (chronic, duration: 52 weeks, M/F, Sprague-Dawley, clinical chemistry).

In the series with Rattus norvegicus (subchronic, duration: 90 days, oral, diet, M/F, Sprague-Dawley, no effects), `C=CC(C)=CCC=C(C)C` [beta-Ocimene] had an NOAEL of 44 mg/kg-day.

The molecule `Cc1ccc(C(C)C)cc1` [p-Cymene] had an NOAEL with Rattus norvegicus (chronic, duration: 6 months, oral, gavage, F, organ weight) of 154 mg/kg-day.

For the molecule `CC(C)(C)c1cc(O)ccc1O` [tert-Butylhydroquinone], the NOAEL in the series with Canidae (chronic, duration: 117 weeks, oral, diet, M/F, Beagle, clinical chemistry) amounted to 72 mg/kg-day.
